From patent publication US20240342265A1, “E PROTEIN-MUTATED WEST NILE VIRUS USED AS LIVE[…] AND ONCOLYTIC DRUG FOR CANCER THERAPY” (priority 2023, published 2024)

Experiments:
[1] = system: Neuro-2a cells (mouse-derived neuroblastoma); assay: Bilateral mouse neuroblastoma model in A/JGpt mice, right-side intratumoral injection; format: in vivo
Experimental: Mouse-derived neuroblastoma cells (Neuro-2a cells, 1×10^8/0.1 ml/mouse) were inoculated into the bilateral lumbar region of A/JGpt female mice (SPF grade 5-week-old). When the diameter of subcutaneous tumor nodules reached 5-6 mm (about 50-100 mm^3), mice were randomly divided into groups per the <10% of tumor volume. The DS1-M2-1 was injected intratumorally only into the right-side tumor on day one.
During the test period, the body weight of each mouse was normal. […] Since the left-side tumor is the non-administered side, it is considered that the effect of DS1-M2-1 on the left-side tumor is a result of the immunotherapy effect.

[2] = system: SH-SY5Y cells (human neuroblastoma); assay: Human neuroblastoma xenograft model in BALB/c nude mice; format: in vivo; details: Adriamycin group
Experimental: The attenuated WNV was tested for oncolytic virus activity. Under aseptic conditions, SH-SY5Y cells (4×106/0.1 ml/per mouse) were inoculated into the right flank region of SPF-grade BALB/c nude mice aged 8 to 10 weeks to establish a human neuroblastoma xenograft model. When the diameter of the subcutaneous tumor nodules reached 5˜6 mm (corresponding to a tumor volume of approximately 50 mm3˜100 mm3), the mice were randomly divided into groups ensuring that the difference in tumor volume between groups was <10%. Grouping and management information are as described in Table 4. The day of the first administration was recorded as D1.
The half-effective dose is 421 PFU.

[3] = Doxorubicin-Hydro group, left tumor
[4] = Doxorubicin-Hydro group, right tumor

COc1cccc2c1C(=O)c1c(O)c3c(c(O)c1C2=O)C[C@@](O)(C(=O)CO)C[C@@H]3O[C@H]1C[C@H](N)[C@H](O)[C@H](C)O1 [Adriamycin, doxorubicin]
Max % TGITV, L [1, 3]: 84.23%
No. of mice with tumor completely eliminated, D 22, L [1, 3]: 3
No. of mice with tumor completely eliminated, No./Total, L [1, 3]: 3/10
Max % TGITV, R [1, 4]: 83.25%
No. of mice with tumor completely eliminated, D 18, R [1, 4]: 1
No. of mice with tumor completely eliminated, D 22, R [1, 4]: 2
No. of mice with tumor completely eliminated, No./Total, R [1, 4]: 3/10
% T/C [2]: 37.43%
% TGITV [2]: 63.27%
% TGITW [2]: 53.12%
Tumor Volume (mm^3) Day 31 [2]: 468.07 ± 145.59 mm^3
Tumor Weight [2]: 0.406 ± 0.157 g

CC(=O)O[C@H]1C(=O)[C@@]2(C)[C@H]([C@H](OC(=O)c3ccccc3)[C@]3(O)C[C@H](OC(=O)[C@H](O)[C@@H](NC(=O)c4ccccc4)c4ccccc4)C(C)=C1C3(C)C)[C@]1(OC(C)=O)CO[C@@H]1C[C@@H]2O [Taxol, paclitaxel]
Max % TGITV, L ([1]; Taxol 20 mg/kg, left tumor): 50.74%
No. of mice with tumor completely eliminated, No./Total, L ([1]; Taxol 20 mg/kg, left tumor): 0/4
Max % TGITV, R ([1]; Taxol 20 mg/kg, right tumor): 46.73%
No. of mice with tumor completely eliminated, No./Total, R ([1]; Taxol 20 mg/kg, right tumor): 0/4
